No end group written: not given here.
Key:
[1] = Deaths, clinical morbidity, blood chemistries and signs of toxicity in treated EAE mice; assay type: in vivo, SJL/J mice
Experimental: An EAE model was established in strain SJL/J mice that is characterized by a relapsing-remitting clinical course. […] Immediately after immunization, animals received an intravenous injection of 200 ng Bordetella pertussis toxin in 200 μl PBS. Animals were weighed daily and assessed for clinical signs of EAE by two independent observers.
[…] Blood was collected for 5 weeks to document changes in hematocrit.

[2] = parameters: species or system SJL/J mice; conditions: mouse, in vivo
Experimental: An EAE model was established in strain SJL/J mice that is characterized by a relapsing-remitting clinical course. Briefly, mice were immunized subcutaneously at the tail base with 100 μl (200 μg) myelin oligodendrocyte glycoprotein (MOG) peptide dissolved in distilled water and emulsified with an equal volume of complete Freund's adjuvant supplemented with 4 mg/ml Mycobacterium tuberculosis H37Ra. Immediately after immunization, animals received an intravenous injection of 200 ng Bordetella pertussis toxin in 200 μl PBS. Animals were weighed daily and assessed for clinical signs of EAE by two independent observers.
Five mice per group were given either daily i.v. full length EPO (50-500 U/kg) or short EPO-peptide JM-4 peptide (250-500 μg/kg; 5-10 μg/mouse) in PBS, or PBS alone for 9 to 14 days. Blood was collected for 5 weeks to document changes in hematocrit.
Hematocrit can be determined by centrifuging heparinized blood in a capillary tube (microhematocrit tube) at 10,000 rpm for 5 minutes. This separates the blood into layers. The volume of packed red blood cells, divided by the total volume of the blood sample gives the packed cell volume (PCV). Because a tube is used, this can be calculated by measuring the lengths of the layers.

[3] = test system: brain injured mice (controlled cortical impact); assay: Controlled cortical impact traumatic brain injury, TUNEL positive cells in the injured hemisphere; conditions: for number of dying (TUNEL positive) cells: i.p. within 30 minutes of trauma for 3 days, both 3 and 8 days post injury, p<0.001 and p<0.01
Description: C57BL/6 mice were anesthetized with isofurane/oxygen inhalation and placed in a stereotaxic frame. The head position was established in the horizontal plane and a craniotomy (4 mm) was produced lateral to the sagittal suture between lambda and bregma, with the dura mater left intact over the cortex. A cortical contusion injury was produced utilizing a pneumatically driven 2.5 mm diameter rod tip at 3.5 m/s to a depth of 1 mm with a dwell time of 400 ms (Precision System Instruments TBI-0300 Impactor, Lexington, Ky.). After injury, a 5 mm disk constructed from dental cement was placed over the craniotomy site and adhered to the skull using cyanocrylate. During the early post-operative phase, animal temperature was maintained by placing the animals on heating pads.
Mice in the whole molecule EPO group received 5000 U/kg body weight rhEPO (Epoetin alpha, Amgen, Thousand Oaks, Calif.) intraperitoneally (i.p.). […] Mice in the PBS and sham-operated groups received 200 μl filtered sterile PBS.
Mice were sacrificed at 3 days or 8 days post-injury; brains were collected and immediately frozen on dry ice. The frozen brains were serially sectioned in coronal cuts onto 15 slides with 12 sections (16 μm thickness) per slide extending from the anterior to the posterior edge of the lesion. Sections were placed such that each individual slide contained a representative sampling of the entire lesion within the injured hemisphere.
Cell death in the mouse brains was detected using a modification of the Apoptag® (Millipore, Billerica, Mass.) in situ TUNEL method. Cryosections (16 μm thickness) were mounted and fixed in 100% acetone for 10 minutes. The slides were rehydrated and post-fixed in 2:1 ethanol:acetic acid for 11 minutes at −20° C., and then washed thoroughly in Stop/Wash Buffer (Apoptag®). Slides were incubated with equilibration buffer for 10 minutes immediately followed by working strength TdT enzyme (33 parts enzyme/77 parts buffer (Apoptag®)) for 60 minutes at 37° C. The TUNEL reaction was detected with Cy3 anti-digox (1:200; Jackson Immunoresearch, West Grove, Pa.).
Micrographs of the processed slides were acquired with a fluorescent Olympus BX60 microscope fitted with a Retiga 2000R digital camera at 10 times magnification. The total number of TUNEL positive cells in lesioned hemispheres and the total area of the brain containing the TUNEL positive cells were quantified using digital imaging software (I.P. lab 4.0, Becton Dickinson, Franklin Lakes, N.J.).
The animals were sacrificed after 3 or 8 days and the injured forebrain lesions were serially sectioned. Cell death within the damaged hemisphere was quantified by DNA fragmentation (TUNEL stain) to determine the degree of neuroprotection. Serial sections containing the entire lesion site and the TUNEL labeled peri-lesional zone were photographed, digitized, and the images used to quantify the number of positive cells by IP lab 4.0 Software (Becton Dickinson, Franklin Lakes, N.J.).
Mice were sacrificed 3 days post-TBI. The effect of treatment delay was determined by TUNEL staining.

[4] = test system: acutely symptomatic EAE animals; assay: JM-4 peptide therapy on acutely symptomatic EAE animals; assay type: in vivo; conditions: 4 days of therapy
Description: The effect of JM-4 peptide therapy on acutely symptomatic EAE animals was studied. Five sham-treated animals with EAE were compared to five EAE animals that had received 4 days of therapy with JM-4 peptide. The sham-treated animals were barely capable of moving their heads with marked four limb weakness. […] The JM-4 peptide treated animals have some neurologic residua (they have a waddling gait and their tails drag).

[5] = test system: TBI mice; assay: Simple Neuroassessment of Asymmetric Impairment (SNAP) after traumatic brain injury; assay type: in vivo, C57BL/6 mice; conditions: 10 days post-injury, versus vehicle treated TBI mice
Experimental: SNAP is a scoring system, based on six tests, developed and validated to assess neurological deficits induced in a mouse model of traumatic brain injury. Mice are evaluated to assess neurological parameters for: (1) interaction with a handler, (2) cage grasp, (3) visual placing, (4) pacing/circling, (5) posture and head tilt, and (6) the baton test. The results from each of the six tests are summed to derive the overall SNAP score. SNAP scores are high when asymmetric deficits are apparent; thus, a neurologically intact animal would be expected to have a SNAP score of “0.” SNAP allows for ambiguous results (for example, a score of ‘1’) and test scores of 2 to 5 are assigned when asymmetric deficits were apparent. In addition, a range is allowed when the deficit appears to span more than one definition for a test score; ranges then are averaged to derive the test score (for example, a range of 2 to 3 would be scored as 2.5 for that test). […]
An uninjured mouse would ambulate in a random pattern (for example, turning either to the right or turning to the left when facing a corner). An injured mouse was expected to ambulate in a consistent pattern (for example, consistently turn toward one direction, and not be readily coaxed in the opposite direction). […]
The effect of JM-4 peptide therapy on neurologic deficits (SNAP scores) was evaluated 10 days post-injury by blinded observers.

[6] = test system: PLP antigen-induced symptomatic SJL/J EAE mice; assay: Spinal cord pathology in EAE mice (mononuclear infiltration, SMI-32 staining); assay type: in vivo; conditions: treated 7 days
Experimental: Groups of PLP antigen-induced symptomatic SJL/J EAE mice were treated with either JM-4 peptide or PBS for 7 days, and spinal cords were removed for pathologic examination.
Monoclonal antibody (SMI-32) (Sternberger Monoclonal Antibodies, Lutherville, Md.) that reacts with a nonphosphorylated epitope in neurofilament H-was used. The reaction is masked when the epitope is phosphorylated. Briefly, frozen tissue sections (16 μm) were acetone-fixed for 10 minutes and air dried. Antigen retrieval was performed using 1× Target Unmasking Fluid (TUF) (Zymed Laboratories, San Francisco, Calif.). Slides were reacted with TUF at 95° C. for 10 minutes, then at room temperature (25° C.) for 10 minutes. SMI-32 primary antibody was diluted (1:5000) with 2% normal horse serum in PBS (1×) and reacted overnight at 4° C. Additional slides were processed without the primary antibody to provide an appropriate control. Slides then were washed twice with PBS (1×) for 3 minutes each wash, and reacted with a biotinylated anti-mouse antibody (Vector Laboratories, Burlingame, Calif.). The slides were washed twice (PBS (1×), 3 minutes each wash), reacted with an avidin-biotin/horseradish peroxidase complex (Vector Laboratories, Burlingame, Calif.) for 30 minutes at room temperature, and washed (PBS (1×), 3 minutes). Slides were visualized with Tyramide signal amplification/Cyanine-3 dye (Perkin Elmer, Waltham, Mass.) at 1:200 dilution in amplification buffer (Perkin Elmer, Waltham, Mass.). Slides then were mounted in glycerol and examined by fluorescence microscopy.
Acute axonal injury in spinal long tract was assessed by SMI-32 staining for nonphosphorylated neurofilaments (FIG. 3, black DAB staining, bottom 2 panels).

[7] = test system: EAE in SJL/J mice; assay: PLP antigen-induced relapsing-remitting EAE, clinical score; assay type: in vivo
Experimental: JM-4 peptide rapidly reduces neurologic deficit in EAE mice. […] Mice first were immunized with a suboptimal dose of PLP antigen (100 μg) on day 0; the mice developed clinical deficits, and were allowed to recover for about 21 days. Recovered EAE mice received 7 days of treatment with either cyclic JM-4 peptide (i.v. 250 ng/kg) or PBS (i.v.) before receiving a second PLP antigen immunization (100 μg).

[8] = test system: brain injured mice (controlled cortical impact); assay: Summed area containing TUNEL positive cells within the lesioned hemisphere; assay type: in vivo, C57BL/6 mice; conditions: 3 days post-injury
Experimental: The effect of JM-4 peptide therapy on the summed area containing TUNEL positive cells within the lesioned hemisphere was evaluated 3 days post-injury. In this experiment, the same TUNEL stained sections (from Example 5) used to quantify the number of TUNEL positive cells were used to quantify the total area containing dying cells within the injured hemisphere.

With “Epoetin Alfa [rhEPO, reference compound]” the “clinical signs of toxicity” value ([1]; SJL/J mice treated with rhEPO) was “developed red-blue ears and tails within 5 to 6 days, typically leading to death”, the effect on hematocrit [2] was “increased markedly within one week” and the “number of dying (TUNEL positive) cells” value [3] was “dramatically reduced”.

For “GCAEHCSLNENITVPDTKV (also: cyclic, mode of cyclisation not given here) [JM-4]”, the “neurologic state versus sham-treated animals” value [4] was “mobile and markedly improved”, the “neurologic deficits (composite SNAP score)” value [5] was “significant improvement in neurologic deficits” and the signs of toxicity ([1]; PLP EAE mice, JM-4 therapy i.v. 250 ng/kg) was “nor were any signs of toxicity observed”. The blood chemistries ([1]; small group treated for 7 days) was “remained unaltered”, the effect on hematocrit [2] was “no effect on hematocrit” and the “increase in red blood cell mass” value [2] was “not associated with any increase in red blood cell mass”. The “cell death judged by TUNEL positivity” value ([3]; 0.1 μg i.p. daily for 72 hours) was “failed to significantly block cell death”, the “cell death judged by TUNEL positivity” value ([3]; 1 μg i.p. daily for 72 hours) was “failed to significantly block cell death” and the “reduction of neural cell death (TUNEL)” value ([3]; 10 μg i.p., 3 days, FIG. 5A) was roughly 70%. For the same substance, the “TUNEL positive dying cells versus sham” value ([3]; 10 μg i.p., first treatment 15 minutes post-injury) was “statistically significant neuroprotective effect”, the “TUNEL positive dying cells versus sham” value ([3]; 10 μg i.p., first treatment 3 hours post-injury) was “equally effective” and the “TUNEL positive dying cells versus sham” value ([3]; 10 μg i.p., first treatment 9 hours post-injury) was “equally effective”. The “TUNEL positive dying cells versus sham” value ([3]; 10 μg i.p., treatment delayed 24 hours) was “Very little treatment effect”, the “cell death judged by TUNEL positivity” value ([3]; 10 micrograms i.p. daily for 72 hours, p=0.005) was “significant protected against cell death” and the “cell death judged by TUNEL positivity” value ([3]; 50 micrograms i.p. daily for 72 hours, p=0.005) was “significant protected against cell death”. The “cell death judged by TUNEL positivity” value ([3]; 100 micrograms i.p. daily for 72 hours, p=0.005) was “significant protected against cell death”, the “neuroprotection by TUNEL” value ([3]; 8 days, FIG. 5B) was “neuroprotective” and the “blocking cell death compared with whole molecule EPO” value ([3]; JM-4 10 μg i.p. versus EPO 5000 U/kg i.p.) was “at least as effective as using whole molecule EPO”. For the same substance, the “cell death (TUNEL-positive cells)” value ([3]; PO by gavage, 100 micrograms daily, 3 hours after injury, p=0.01) was “effective blocking cell death”, the therapeutic window ([3]; following severe head trauma) was “at least 9 hours” and the “number of dying (TUNEL positive) cells” value [3] was “dramatically reduced”. For the same substance, the vacuolar changes ([6]; versus PBS) was “fewer vacuolar changes”, the “white matter mononuclear infiltration” value ([6]; versus PBS) was “marked reduction” and the “injured SMI-32 positive axons” value ([6]; versus sham) was “far fewer injured axons”. For the same substance, the “clinical signs in response to the second PLP immunization” value ([7]; after 7 days i.v. 250 ng/kg, versus sham, p<0.05) was “less severe clinical signs at a later time”, the “disease severity in long term follow-up” value ([7]; after discontinuation of all therapy for 30 days, p<0.001) was “much milder disease” and the “clinical score versus sham treated (saline)” value ([7]; recovered EAE mice, 7 days i.v. 250 ng/kg, p<0.05) was “Marked clinical improvement”. For the same substance, the “clinical score after a second seven-day treatment course” value ([7]; versus PBS sham treated animals) was “Clinical improvement again was observed”, the “lesional area containing TUNEL positive cells” value [8] was “much reduced” and the “reduction of lesioned volume (area)” value ([8]; versus PBS, p<0.001) was “greater than 50%”.

From patent publication US11559565B2, “Methods for treating inflammatory disorders and traumatic brain injury using stabilized non-hematopoietic EPO short peptides” (United States Government as Represented By The Department …, priority 2005, dated 2023)
